According to the supplement of paper PMC10307832:

How the values were obtained:
Test in all cases: relative viability (nuclei count vs DMSO), 5 days (fraction); higher = more cells survive
[1] = compound: C1=CC(=CC=C1NC(=S)NNC2=C(C=C(C=C2[N+](=O)[O-])C(F)(F)F)[N+](=O)[O-])F [Kobe2602]
Method in brief: (§1)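 Following overnight incubation at 37 °C, lung cancer cell lines in 1536-well plates were pinned with five library-drug doses (not always all listed) in √10 steps on vehicle-anchored plates. The cells then spent 5 days without medium change before a combined fix, permeabilisation and Hoechst stain, 4× imaging and MetaXpress nuclear counts. Viability is the treated-to-vehicle ratio of nuclei, taken as the median across plates. Only plates with control CV below 25% and at least one doubling passed.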

[2] = compound: COc1cc2nccc(Oc3ccc(NC(=O)C4(C(=O)Nc5ccc(F)cc5)CC4)cc3)c2cc1OC [Cabozantinib]
Method in brief: as §1

[3] = compound: O[C@@H](COc1cccc2ncccc12)CN1CCN([C@@H]2c3ccccc3[C@@H]3[C@H](c4ccccc42)C3(F)F)CC1 [Zosuquidar]
Method in brief: as §1

[4] = compound: COc1cc2nccc(Oc3ccc(NC(=O)C4(C(=O)Nc5ccc(F)cc5)CC4)cc3)c2cc1OC [Cabozantinib] + C[C@@H](Oc1cc(-c2cnn(C3CCNCC3)c2)cnc1N)c1c(Cl)ccc(F)c1Cl [Crizotinib] (partner 1 µM)
Method in brief: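 Medians of duplicate plates are given as relative viability. That measure is the nuclei count in treated wells divided by the count in vehicle wells. Counts were taken on 4× images of lung cancer cell lines in 1536-well plates, 5 days after pin-tool dosing the day after seeding with one drug alone or a fixed anchor-drug dose plus five library-drug doses (not always all listed) in √10 steps.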

Cell Line	relative viability ([1]; 0.2 µM)	relative viability ([1]; 0.6325 µM)	relative viability ([1]; 2 µM)	relative viability ([1]; 6.325 µM)	relative viability ([1]; 20 µM)	relative viability ([2]; 0.02 µM)	relative viability ([2]; 0.06325 µM)	relative viability ([2]; 0.2 µM)	relative viability ([2]; 0.6325 µM)	relative viability ([2]; 2 µM)	relative viability ([3]; 0.01 µM)	relative viability ([3]; 0.03162 µM)	relative viability ([3]; 0.1 µM)	relative viability ([3]; 0.3162 µM)	relative viability ([3]; 1 µM)	relative viability ([4]; first compound 0.02 µM)	relative viability ([4]; first compound 0.06325 µM)	relative viability ([4]; first compound 0.2 µM)	relative viability ([4]; first compound 0.6325 µM)	relative viability ([4]; first compound 2 µM)
201T	1	1.01	0.946	0.997	0.963	0.868	1.1	0.967	1	0.965	0.947	0.979	0.883	0.985	0.982	1.04	1.02	0.988	0.956	0.976
A549	0.946	0.965	0.975	0.929	0.97	0.981	1.01	0.991	0.941	0.907	0.895	0.802	0.935	1.09	0.98	0.812	0.853	0.787	0.79	0.729
A-427	1.03	1.12	0.962	1.04	1.06	0.996	1.01	1.02	0.972	0.98	1.02	1.01	0.801	1.14	0.96	0.836	0.968	0.887	0.789	0.858
ABC-1	0.941	1.1	0.769	1.06	1.04	0.902	1.05	0.993	0.875	0.887	0.926	0.841	1.04	0.986	0.911	1.23	1.08	1.19	0.952	1.01
BEN	1.14	1.02	0.925	0.981	1.01	0.918	1.11	1	0.95	0.808	0.994	0.876	0.801	0.938	0.977	1.12	1	0.868	0.895	0.767
CAL-12T	0.965	1.06	0.896	0.997	0.957	1.04	1.14	1.01	0.982	1.01	1.07	1.16	0.923	1.2	0.932	0.724	0.753	0.634	0.611	0.429
COR-L23	0.95	1.06	1.09	1.09	0.95	1.11	1.04	0.993	1	1.07	1.06	1.11	1.02	1.1	1.06	0.73	0.791	0.716	0.621	0.544
COR-L 105	0.899	1.06	0.858	0.985	0.914	0.844	0.991		0.888	0.857	0.955	0.841	0.796	1.04	0.905	0.653	1.03		0.659	0.561
Calu-6	0.992	1.05	1.01	1.01	0.929	1.14	1.08	0.977	0.987	0.954	0.993	0.989	1.11	1.04	1.06	0.788	0.925	0.742	0.75	0.773
ChaGo-K-1	1.09	1.04	0.946	0.979	0.972	1.06	1.05	1	0.909	1.01	1.02	0.998	0.978	1.02	0.999	1.24	1.3	1.18	1.13	1.09
EBC-1	0.956	1.05	0.957	0.93	0.984	1.04	0.901	0.227	0.174	0.165	1.05	1.01	0.956	1.11	0.929	0.194	0.173	0.182	0.198	0.213
EKVX	0.968	1.02	0.922	0.976	1.09	0.919	1.12	0.915	1.01	1.1	0.952	0.961	0.737	1.02	0.97	1.25	1.07	0.856	0.907	1.03
EMC-BAC-2	1.02	1.26	0.947	1.12	0.999	0.776	1.1	1.15	1.04	1.01	1.01	0.955	0.89	1.12	0.73	0.841	0.779	0.781	0.817	0.827
EPLC-272H	0.98	1.16	0.952	1.02	1.04	0.921	1.17	0.821	0.872	0.856	0.963	0.995	0.781	1.06	0.892	0.893	0.946	0.783	0.835	0.771
H3255	0.959	1.03	0.909	0.91	0.915	0.948	1.04		0.994	1.07	0.959	0.952	0.8	1.07	0.931	0.922	0.927		0.974	0.931
HARA	0.978	1.13	0.944	1.01	1.03	0.916	1.16	0.714	1.04	1.05	0.98	0.852	0.944	1.01	0.941	1.22	1.17	1.09	0.957	1.09
